This note sets out measurements from patent EP0091090A2, “Bipyridine substituted imidazolidene copper complex and its use in food-producing animals, and bipyridine, 2,2'-(2-imidazolidinylidene) di-copper complex and use in animals” (INTERNATIONAL MINERALS & CHEMICAL CORPORATION, priority 1982, dated 1983).

This experiment has as its system rumen microflora. Kind of experiment: Batch culture assay for the degradation of starch (Example 3). It is filed as cell-based, steers. An excerpt: The subject Formula ^IV compound was also compared to monensin in another rumen fluid batch culture test as set forth below. The test was designed to screen compounds for inhibition of starch breakdown by the rumen microflora. […] It is considered more desirable to avoid degradation of starch in the rumen so that it is passed on into the abomasum where it can be digested more efficiently. […] Test Procedure: Animals - Mature fistulated steers were maintained on concentrate, roughage, or concentrate/ roughage (50/50) rations. Animals were fed twice daily at 8:00 A.M. and 4:00 P.M.
Culture Assays - Approximately two liters of rumen fluid were collected from fistulated animals with the use of a hand pump. The rumen fluid, collected in a stoppered flask, was then immediately taken to the laboratory for processing. Samples were taken at 8:00 A.M. just prior to the first feeding or at 1:00 P.M. (ca. 4-5 hours after the first feeding). Rumen fluid was strained through six layers of cotton gauze cloth into a flask that was flushed with C02 gas. The filtrate was centrifuged for 5 minutes at 100 rpm in a Sorvall centrifuge to remove large particulate material. The supernatant was again passed through six layers of gauze into a flask under C02 gas and stoppered.
Batch Culture Assay for the Degradation of Starch - Twenty-five ml of rumen fluid prepared as above was added to serum vials (Wheaton Glass, 100 ml capacity) containing 0.25-1.00% final concentration starch as an energy substrate in 25 ml batch culture assay buffer. The serum vials were sealed under C02 gas phase, and incubations were carried out for 20-24 hours at 39°C on a New Brunswick rotary shaker (250 rpm). Each experimental vial was done in triplicate. The corn starch used in degradation experiments was previously washed with distilled water several times, filtered through an 8 micron (47 mm) Millipore filter, and dried at 90°C for 24 hours.
At intervals of 0 and 24 hours, the entire contents in vials were centrifuged at 250 rpm for 5 minutes. The supernatants were carefully removed with a pipet and the remaining "starch pellets" resuspended in water and passed through borosilicate glass microfiber prefilters (Millipore AP 20-047-00). Filters were dried in an oven for 24 hours at 90°C, cooled and then weighed. The amount of starch remaining after 24 hours' incubation was compared with the amount present at 0 hours and the per cent of substrate degraded calculated.

In the case of “2,2'-(4,5-diphenyl-2H-imidazol-2-ylidene)bispyridine with CuCl2(1/1) [Formula IV Compound]”, the starch degraded (50 ppm, relative to unincubated control rumen fluid batch culture) was 28.7%. The “per cent starch degraded” value (75 ppm, relative to unincubated control) came to 13.9%.
